The target in test [1] is T1, KLK4 (Homo sapiens, UniProt Q9Y5K2). Nature of the test: Inhibitor kinetics: KLK4 amidolytic activity with peptide-pNA substrates. Further details: pro-region of PSA (KLK3), replacing the native KLK4 pro-region (N, cleaved yes); made in house. The format is biochemical. Conditions: substrate FVQR-pNA (0.2 mM); read-out: IC50. Here is the method:
Human recombinant KLK4 was expressed in E. coli using a previously described chimeric KLK4 plasmid construct where the native pro-region was replaced with the pro-region of PSA, enabling autoactivation. Protein was expressed as inclusion bodies which were isolated and solubilised as described previously to yield 90% pure KLK4. Protein refolding was performed by dilution into 100 volumes of refolding buffer I (2 M urea, 0.1M NaCl, 5 mM GSH, 0.5 mM GSSG, 10 mM benzamidine, 50 mM tris HCl pH 8.0, 2 mM CaCl2) over 44 hours before further dilution into 3 volumes refolding buffer II (refolding buffer I with 0.5 M urea 0.5 mM GSH, 0.05 mM GSSG, 2 mM CaCl2) over another 24 hours. Dialysis was performed as previously described (with additional 2 mM CaCl2 to reduce aggregation) before concentration using UNO sphere Q (Biorad) eluting with tris buffered saline (pH 7.5)/2 mM CaCl2. Subsequently, the material was purified to apparent homogeneity (according to coomassie blue stained SDS PAGE) by gel filtration using Sephacryl S-200 (GE Health Care) pre-equilibrated with 50 mM Tris-HCl pH 7.5, 20 mM NaCl and 2 mM CaCl2.
All enzymes and substrates were obtained from Sigma Chemicals if not otherwise specified. Bacterially expressed human KLK4 (37 ng), bovine β-trypsin (20 ng), bovine thrombin (20 ng), bovine α-chymotrypsin (0.5 μg), protease (0.5 μg; Streptomyces griseus type XIV), bovine plasminogen (0.5 μg), and human matriptase (30 ng; R&D Systems) were incubated with various concentrations of inhibitors in 200 μL assay buffer for 10 minutes prior to initiation by the addition of 100 μL of 0.3 mM of peptide-pNA substrates (FVQR-pNA: KLK4; BAPNA: trypsin, (Streptomyces griseus Type XIV Protease and bovine plasma plasminogen); Bz-Phe-Val-Arg-pNA: thrombin and matriptase; Trp-pNA: α-chymotrypsin; Leu-pNA: (Streptomyces griseus Type XIV Protease and bovine plasma plasminogen). The release of pNa moiety was monitored as described above for 7 minutes with each point being the average of three independent triplicate reactions. IC50 was determined using the Prism 5 software suite (GraphPad software Inc.).

The target of test [2] is T2, trypsin (Bos taurus, UniProt P00760).
T2 construct: purchased Sigma Chemicals
T2 sequence (P00760 18-246 limits assumed): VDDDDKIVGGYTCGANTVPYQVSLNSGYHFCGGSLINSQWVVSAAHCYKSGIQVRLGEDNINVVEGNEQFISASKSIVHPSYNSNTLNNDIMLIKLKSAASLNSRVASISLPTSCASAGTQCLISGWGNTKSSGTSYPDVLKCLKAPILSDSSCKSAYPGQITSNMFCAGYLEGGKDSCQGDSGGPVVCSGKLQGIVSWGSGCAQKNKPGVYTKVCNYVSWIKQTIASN
In words: Protein proteolysis: fibrinogen digestion by trypsin (SDS-PAGE). Conditions: SDS-PAGE. Format: biochemical, bovine. Here is the method: (§1) Fibrinogen was solubilised in assay buffer to a final concentration of 1 mg/ml and digested with KLK4 (+/−inhibitor) over a period of 90 minutes at 37° C. Typically assays consisted of 5 μM protein substrate and 2.5 nM KLK4 protein or 1 nM trypsin made up to a final volume of 8 μl with assay buffer. Proteolysis was initiated by addition of KLK4 and terminated by addition of SDS PAGE sample buffer and heat denaturation at 100° C. for 5 minutes. Hydrolysis products were resolved on 10% SDS PAGE gels and compared with incubations terminated immediately after initiation (time 0), and substrate proteins incubated in assay buffer for 90 minutes in the absence of KLK4 or 4-16 mins with trypsin.

Test [3] deals with Thrombin. The settings on record: cited from earlier work.
Test [4] concerns the target T1, KLK4. In words: Protein proteolysis: fibrinogen digestion by KLK4 (SDS-PAGE). Further details: pro-region of PSA (KLK3), replacing the native KLK4 pro-region (only if the E. coli preparation was used) (N, cleaved yes); made in house. The format is biochemical. The settings on record: inhibitor at 2 μM. As to the method: as §1

Read-outs that look alike come from different tables or passages of the source. Bridge positions count the residues as written; N and C are the ends. Peptide text beside a SMILES is read from it.

T1 sequence (Q9Y5K2 31-254): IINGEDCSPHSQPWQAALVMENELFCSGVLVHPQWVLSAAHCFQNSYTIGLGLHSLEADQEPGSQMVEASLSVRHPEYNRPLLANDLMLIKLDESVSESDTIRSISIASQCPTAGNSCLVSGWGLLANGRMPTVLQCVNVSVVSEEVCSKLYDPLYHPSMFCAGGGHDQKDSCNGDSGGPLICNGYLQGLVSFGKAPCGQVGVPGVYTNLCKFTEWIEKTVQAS

Consider `CC[C@H](C)[C@@H]1NC(=O)[C@H](C)NC(=O)[C@@H]2CCCN2C(=O)[C@H]([C@@H](C)CC)NC(=O)[C@H](CO)NC(=O)[C@H](CCCNC(=N)N)NC(=O)[C@H](CCC(N)=O)NC(=O)[C@@H]2CSSC[C@H](NC1=O)C(=O)N[C@@H](Cc1ccccc1)C(=O)N1CCC[C@H]1C(=O)N[C@@H](CC(=O)O)C(=O)NCC(=O)N[C@@H](Cc1ccccc1)C(=O)N2` [SFTI-FCQR Ala9] (cyclo(AICFPDGFCQRSIP); disulfide 3-9), for which, in test [1], the IC50 (commonly the concentration needed to halve the response being measured) was found to be 1.14 ± 0.076 µM.

Regarding “Sunflower trypsin inhibitor [SFTI-1, reference compound]”, in test [2], the “concentration that completely inhibits trypsin digestion of fibrinogen” value came to 31.25 nM. The inhibition constant (Ki) – broadly, a measure of affinity in units of concentration, obtained from inhibition or displacement – is 5.05 µM in test [3] (substrate N-t-Boc-LRR-AMC, Long et al. 2001) and 0.136 µM in test [3] (substrate Unknown, Luckett et al. 1999). Further, the “inhibition of fibrinogen proteolysis by KLK4” value in test [4] is recorded as “no inhibition”.

Values taken from patent US20110172163A1, “Novel Protease Inhibitors” (QUEENSLAND UNIVERSITY OF TECHNOLOGY, priority 2008, published 2011).
